Several values for one entry are separate records, joined by “and”; a condition that tells them apart may be missing. Identical values can stand only once. Toxic doses and inconclusive results are not listed.

The subject of the experiment is P388 leukemia ip, CD2F1 mice, survival T/C. Description: NCI In Vivo Anticancer Drug Screen. Data for tumor model P388 Leukemia (intraperitoneal) in CD2F1 (CDF1) mice. Particulars: endpoint: median survival time, higher = longer survival. The essentials:
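Mice carrying the transplanted tumor received test compound or vehicle. Survival was recorded in each group, and the value is the treated-group measurement divided by that of the vehicle-treated control group.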

[1] abbreviates: dose: 100.0 mg/kg/injection, schedule: Q01DX001 (ip), vehicle: saline with Tween-80.
[2] abbreviates: dose: 200.0 mg/kg/injection, schedule: Q01DX001 (ip), vehicle: saline with Tween-80.
Where [3] appears, read: dose: 25.0 mg/kg/injection, schedule: Q04DX003 (ip), vehicle: saline with Tween-80.
Where [4] appears, read: dose: 50.0 mg/kg/injection, schedule: Q04DX003 (ip), vehicle: saline with Tween-80.
The mark [5] stands for this setting: dose: 200.0 mg/kg/injection, schedule: Q04DX003 (ip), vehicle: saline with Tween-80.
[6] abbreviates: dose: 400.0 mg/kg/injection, schedule: Q04DX003 (ip), vehicle: saline with Tween-80.
The mark [7] stands for this setting: dose: 50.0 mg/kg/injection, schedule: Q01DX005 (ip), vehicle: saline with Tween-80.
The mark [8] stands for this setting: dose: 100.0 mg/kg/injection, schedule: Q01DX005 (ip), vehicle: saline with Tween-80.
Setting [9] is: dose: 60.0 mg/kg/injection, schedule: Q01DX005 (ip), vehicle: saline with Tween-80.
The mark [10] stands for this setting: dose: 120.0 mg/kg/injection, schedule: Q01DX005 (ip), vehicle: saline with Tween-80.
[11] abbreviates: dose: 200.0 mg/kg/injection, schedule: Q01DX005 (ip), vehicle: saline with Tween-80.
Setting [12] is: dose: 12.5 mg/kg/injection, schedule: Q01DX009 (ip), vehicle: saline with Tween-80.
[13] abbreviates: dose: 25.0 mg/kg/injection, schedule: Q01DX009 (ip), vehicle: saline with Tween-80.
The mark [14] stands for this setting: dose: 50.0 mg/kg/injection, schedule: Q01DX009 (ip), vehicle: saline with Tween-80.
Setting [15] is: dose: 200.0 mg/kg/injection, schedule: Q01DX009 (ip), vehicle: saline with Tween-80.

`CCOC(=O)/C=C(\C)Nc1ccccc1N`: the T/C by setting is: under setting [1], 97 % of control; under setting [2], 93 % of control.

Regarding `CCOP(=O)(N(CCCl)CCCl)N1CCc2ccccc2C1` (configuration not stated), the T/C runs as follows: (dose: 12.5 mg/kg/injection, schedule: Q04DX003 (ip), vehicle: saline with Tween-80) 103 % of control; under setting [3], 98 % of control; under setting [4], 103 % of control; (dose: 100.0 mg/kg/injection, schedule: Q04DX003 (ip), vehicle: saline with Tween-80) 110 % of control; under setting [5], 112 % of control; under setting [6], 119 % of control.

Take `COC(=O)c1[nH]cnc1/N=N\N(CCF)CCF`: the T/C reads like this: (dose: 44.0 mg/kg/injection, schedule: Q04DX003 (ip), vehicle: saline with Tween-80) 155 % of control; (dose: 66.0 mg/kg/injection, schedule: Q04DX003 (ip), vehicle: saline with Tween-80) 110 % of control.

With `CS/C(C#N)=C(\C#N)SC`, the T/C reads like this: under setting [7], 115 % of control; under setting [8], 113 % of control.

On to `COC1(OC)C(c2ccc(Cl)cc2)C(C#N)(C#N)C1(OC)OC` (configuration not stated), for which the T/C by setting is: (dose: 60.0 mg/kg/injection, schedule: Q01DX005 (ip), vehicle: Klucel (hydroxypropylcellulose) (HPC)) 100 % of control; (dose: 120.0 mg/kg/injection, schedule: Q01DX005 (ip), vehicle: Klucel (hydroxypropylcellulose) (HPC)) 102 % of control; (dose: 240.0 mg/kg/injection, schedule: Q01DX005 (ip), vehicle: Klucel (hydroxypropylcellulose) (HPC)) 96 % of control.

On to `O=[N+]([O-])C(CO)CCCC(CO)[N+](=O)[O-]` (configuration not stated), for which the T/C by setting is: (dose: 50.0 mg/kg/injection, schedule: Q01DX005 (ip), vehicle: saline) 111 % of control; (dose: 100.0 mg/kg/injection, schedule: Q01DX005 (ip), vehicle: saline) 107 % of control; (dose: 200.0 mg/kg/injection, schedule: Q01DX005 (ip), vehicle: saline) 107 % of control.

Take `OCC(O)CO`: the T/C (dose: 0.5 % in 0.5 ml injection vol, schedule: Q01DX009 (ip), vehicle: water) was 100 % of control; the T/C (dose: 1.0 % in 0.5 ml injection vol, schedule: Q01DX009 (ip), vehicle: water) is 93 % of control; the T/C (dose: 2.0 % in 0.5 ml injection vol, schedule: Q01DX009 (ip), vehicle: water) was 99 % of control and 105 % of control; the T/C (dose: 4.0 % in 0.5 ml injection vol, schedule: Q01DX009 (ip), vehicle: water) was 105 % of control and 111 % of control; the T/C (dose: 8.0 % in 0.5 ml injection vol, schedule: Q01DX009 (ip), vehicle: water) was 104 % of control and 94 % of control; the T/C (dose: 16.0 % in 0.5 ml injection vol, schedule: Q01DX009 (ip), vehicle: water) was 101 % of control and 102 % of control.

As for `Cc1ccc([N+](=O)[O-])cc1NC(=O)NNC(=O)CNC(=O)Nc1cccc(C(F)(F)F)c1`, the T/C was 95 % of control under setting [9]; 96 % of control under setting [10]; 100 % of control (dose: 240.0 mg/kg/injection, schedule: Q01DX005 (ip), vehicle: saline with Tween-80).

Turning to `CCOC(=O)C1C2(C(C)=O)C(C)=Nc3c(C#N)cnn3C12C(=O)OCC` (configuration not stated), the T/C by setting is: (dose: 6.25 mg/kg/injection, schedule: Q01DX005 (ip), vehicle: saline with Tween-80) 105 % of control; (dose: 12.5 mg/kg/injection, schedule: Q01DX005 (ip), vehicle: saline with Tween-80) 100 % of control; (dose: 25.0 mg/kg/injection, schedule: Q01DX005 (ip), vehicle: saline with Tween-80) 104 % of control; under setting [8], 92 % of control; under setting [11], 91 % of control.

With `CC(C)(CCN)c1cc(CC(C)(C)C2(C)OCCO2)no1`, the T/C is 113 % of control under setting [7], 108 % of control under setting [8] and 113 % of control under setting [11].

As to `O=C(O)CSc1nnc2c3ccccc3c3ccccc3c2n1`, the T/C reads like this: under setting [12], 97 % of control; under setting [13], 100 % of control; under setting [14], 100 % of control and 93 % of control; (dose: 100.0 mg/kg/injection, schedule: Q01DX009 (ip), vehicle: saline with Tween-80) 87 % of control; under setting [15], 101 % of control.

Consider `COc1ccc(CC(=O)C(=O)O)cc1OCc1ccccc1`, for which the T/C under setting [4] is 96 % of control, the T/C under setting [5] is 101 % of control and the T/C under setting [6] is 99 % of control.

With `CC(C)S(=O)c1ccccc1` (configuration not stated), the T/C runs as follows: (dose: 50.0 mg/kg/injection, schedule: Q01DX001 (ip), vehicle: saline with Tween-80) 103 % of control; under setting [1], 95 % of control; under setting [2], 95 % of control.

`C=CCN=C(NC(C)(C)C)c1ccccc1`: the T/C by setting is: (dose: 50.0 mg/kg/injection, schedule: Q01DX005 (ip), vehicle: Klucel (hydroxypropylcellulose) (HPC)) 107 % of control; (dose: 100.0 mg/kg/injection, schedule: Q01DX005 (ip), vehicle: Klucel (hydroxypropylcellulose) (HPC)) 96 % of control.

Consider `O=c1n(CC2CC3(Cl)C(Cl)=C(Cl)C2(Cl)C3(Cl)Cl)c(=O)n(CC2CC3(Cl)C(Cl)=C(Cl)C2(Cl)C3(Cl)Cl)c(=O)n1CC1CC2(Cl)C(Cl)=C(Cl)C1(Cl)C2(Cl)Cl` (configuration not stated), for which the T/C reads like this: under setting [12], 101 % of control; under setting [13], 95 % of control; under setting [14], 87 % of control and 95 % of control; under setting [15], 97 % of control.

As for `Clc1nc(C(Cl)Cl)nc2ccccc12`, the T/C was 106 % of control (dose: 30.0 mg/kg/injection, schedule: Q01DX005 (ip), vehicle: saline with Tween-80); 110 % of control and 111 % of control under setting [9]; 111 % of control and 113 % of control under setting [10].

Turning to `O=C(/C=C\c1ccncc1)c1ccc([N+](=O)[O-])cc1`, the T/C (dose: 25.0 mg/kg/injection, schedule: Q01DX009 (ip), vehicle: other) is 103 % of control; the T/C (dose: 50.0 mg/kg/injection, schedule: Q01DX009 (ip), vehicle: other) is 101 % of control; the T/C (dose: 100.0 mg/kg/injection, schedule: Q01DX009 (ip), vehicle: other) was 96 % of control; the T/C (dose: 200.0 mg/kg/injection, schedule: Q01DX009 (ip), vehicle: other) is 93 % of control; the T/C (dose: 400.0 mg/kg/injection, schedule: Q01DX009 (ip), vehicle: other) was 92 % of control.

Consider `O=C(O)CNC(=O)C(CN1CC(=O)OC1c1ccc([N+](=O)[O-])cc1)N1C(=O)c2ccccc2C1=O` (configuration not stated), for which the T/C is 100 % of control under setting [3] and 100 % of control under setting [4].

Turning to `Cc1cc(=O)n2c(-c3ccc(Cl)cc3)csc2n1`, the T/C was 90 % of control (dose: 25.0 mg/kg/injection, schedule: Q04DX002 (ip), vehicle: Klucel (hydroxypropylcellulose) (HPC)); 101 % of control (dose: 50.0 mg/kg/injection, schedule: Q04DX002 (ip), vehicle: Klucel (hydroxypropylcellulose) (HPC)); 102 % of control (dose: 100.0 mg/kg/injection, schedule: Q04DX002 (ip), vehicle: Klucel (hydroxypropylcellulose) (HPC)).

As to `CNC(=O)OCc1c(COC(=O)NC)c2n(c1C)CCc1ccccc1-2`, the T/C (dose: 12.5 mg/kg/injection, schedule: Q01DX009 (ip), vehicle: distilled water + Tween-80) is 153 % of control.

For `CCCCCCCC/C=C/CCCCCCCC(=O)N(CCOC(=O)C(C)(C)C)CCOC(=O)C(C)(C)C`, the T/C (dose: 50.0 mg/kg/injection, schedule: Q01DX009 (ip), vehicle: Klucel (hydroxypropylcellulose) (HPC)) is 104 % of control; the T/C (dose: 100.0 mg/kg/injection, schedule: Q01DX009 (ip), vehicle: Klucel (hydroxypropylcellulose) (HPC)) is 112 % of control; the T/C (dose: 200.0 mg/kg/injection, schedule: Q01DX009 (ip), vehicle: Klucel (hydroxypropylcellulose) (HPC)) is 111 % of control.

On to `FC(F)(F)c1ccccc1N=Nc1c(-c2ccccc2)nn(C(=S)S)c1-c1ccccc1`, for which the T/C by setting is: (dose: 100.0 mg/kg/injection, schedule: Q04DX002 (ip), vehicle: saline with Tween-80) 93 % of control; (dose: 200.0 mg/kg/injection, schedule: Q04DX002 (ip), vehicle: saline with Tween-80) 91 % of control; (dose: 400.0 mg/kg/injection, schedule: Q04DX002 (ip), vehicle: saline with Tween-80) 100 % of control.

Source of the values: PubChem BioAssay AID330 (DTP/NCI, 2004).
